Where two headings read alike, the source gives them in different places.
Target: T1, Maillard product of lactose and albumin from chicken egg (band at ~50-55 kDa) (Gallus gallus, UniProt P01012)
T1 sequence (P01012 1-386): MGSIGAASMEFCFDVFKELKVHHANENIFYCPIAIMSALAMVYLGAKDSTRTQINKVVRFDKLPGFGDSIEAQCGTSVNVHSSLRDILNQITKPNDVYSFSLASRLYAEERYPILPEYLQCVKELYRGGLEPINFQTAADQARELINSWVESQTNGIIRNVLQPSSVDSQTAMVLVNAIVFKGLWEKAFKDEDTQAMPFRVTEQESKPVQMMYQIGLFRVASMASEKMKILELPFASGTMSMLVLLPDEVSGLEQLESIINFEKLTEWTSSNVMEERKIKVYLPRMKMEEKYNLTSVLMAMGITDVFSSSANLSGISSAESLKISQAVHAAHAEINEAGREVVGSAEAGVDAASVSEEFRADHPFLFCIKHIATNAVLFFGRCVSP
Settings: complex 0.2 mM, Maillard product 3 g/l, 60° C., pH 9.5
Procedure: A mixture of lactose and albumin from chicken egg, approx. 45 000 g/mol, in a weight ratio of 3:1 was dissolved in de-salinated water and stirred for 30 min at room temperature. The resulting solution was lyophilized using a commercial lab lyophilizer (Christ; Gamma 1-20) and homogenized. 0.5 g of the resulting powder was heated to 140° C. for 20 min and was then allowed to cool to room temperature. […] An aqueous solution of the Maillard product (3 g/l) was incubated at 60° C. at pH 9.5 (hydrogen carbonate/carbonate buffer) with the complexes of examples 1 and 2 at the concentrations and for amounts of time given in table 1. The progress of protein degradation was followed by SDS page gel analysis. The intensity value of the band at ˜50-55 kDa at time t=0, that is before the start of incubation, is set to 1.

## O=C1CN2CCN3CC(=O)[O][Zr]([O]1)([O]c1ccccc1C2)[O]c1ccccc1C3 [Complex K1]
T = 0 h (before start of incubation, set to 1)
  Intensity of the band at ~50-55 kDa: 1
T = 1 h, relative to t=0 set to 1
  Intensity of the band at ~50-55 kDa: 0.91
T = 2 h, relative to t=0 set to 1
  Intensity of the band at ~50-55 kDa: 0.83

Source: patent US20210087496A1, “Non-Enzymatic Removal Of Proteinaceous Soils” (Henkel AG & Co. KGaA, priority 2019, published 2021)
